Reference: patent US20110092463A1, “COMBINATION FOR USE IN THE TREATMENT OF INFLAMMATORY DISORDERS” (priority 2008, published 2011)

Test system: human macrophage cell-line MonoMac-6 (MM6)
Test: PMA-induced release of tumor necrosis factor (TNF) from MonoMac-6 cells, Human TNF-α ELISA
Assay type: cell-based
Conditions: n=2; for TNF concentration as % of the untreated PMA-stimulated control MM6 cells: 48 hours, PMA 10 ng/mL five hours, mean; for mean TNF concentration after PMA stimulation: 48 hours treatment, then PMA 10 ng/mL five hours, untreated control 75.3 pg/mL
Procedure: Cells from the human macrophage cell-line MonoMac-6 (MM6) (Ziegler-Heitbrock et al, Int. J. Cancer, 41, 456 (1988)) were cultured (37° C./5% CO2) in RPMI-1640 medium supplemented with 1 mM sodium pyruvate, 1× nonessential amino acids, 10 μg/mL insulin, 1 mM oxalacetic acid, 100 units/mL penicillin, 100 μg/mL streptomycin and 10% (v/v) fetal bovine serum. At the start of the experiment, MM6 cells were seeded in 96-well plates at a density of 1×10^5 cells/mL (200 μL per well). The MM6 cells were treated (incubation conditions as above) with indicated final concentrations of the test drugs for 48 hours prior stimulation with phorbol-12-myristate-13-acetate (PMA; Sigma-Aldrich, Stockholm, Sweden) followed by measurement of PMA-induced release of tumor necrosis factor (TNF) (see below for details). To stimulate formation and release of TNF, the MM6 cells were incubated (37° C./5% CO2) for five hours (in RPMI-1640 with 10% fetal bovine serum with supplements as above) with PMA at a final concentration of 10 ng/mL. After spinning down the cells after the different MM6 incubations/stimulations (see above and below), the concentrations of TNF in the supernatants were quantitated using Human TNF-α ELISA Kit from Mabtech (Nacka, Sweden) according to instructions supplied by the manufacturer. Stock solutions of pemirolast (potassium salt; purchased from American Custom Chemicals Corporation, San Diego, USA) and losartan (potassium salt; purchased from AK Scientific, Inc., Mountain View, Calif., USA) were made in sterile saline. […] However, after five hours of PMA stimulation, the mean TNF concentration in the supernatants of untreated MM6 cells was 75.3 pg/mL (n=2).

[1] = 0.1 μM of each drug (alone or in combination)
[2] = 1 μM of each drug (alone or in combination)
[3] = 10 μM of each drug (alone or in combination)
[4] = 100 μM of each drug (alone or in combination)

Question: How did the “TNF concentration as % of the untreated PMA-stimulated control MM6 cells” value (“TNF concentration as %” for short) [1] turn out when `CCCCc1nc(Cl)c(CO)n1Cc1ccc(-c2ccccc2-c2nn[nH]n2)cc1` [losartan] was run?
Answer: 98%

Question: What about the “mean TNF concentration after PMA stimulation” value (“mean TNF concentration” below) (0.1 μM test drug) of the same compound?
Answer: 73.8 pg/mL

Question: What about the “TNF concentration as %” value [2] of the same compound?
Answer: 90%

Question: And the “mean TNF concentration” value (1 μM test drug)?
Answer: 67.5 pg/mL

Question: And the “TNF concentration as %” value [3]?
Answer: 99%

Question: And the “mean TNF concentration” value (10 μM test drug)?
Answer: 74.5 pg/mL

Question: What about the “TNF concentration as %” value [4] of the same compound?
Answer: 119%

Question: And the “mean TNF concentration” value (100 μM test drug)?
Answer: 89.8 pg/mL

Question: Which “TNF concentration as %” value [1] does the source give for `Cc1cccn2c(=O)c(-c3nnn[nH]3)cnc12` [pemirolast] here?
Answer: 88%

Question: What about the “mean TNF concentration” value (0.1 μM test drug) of the same compound?
Answer: 66.5 pg/mL

Question: What about the “TNF concentration as %” value [2] of the same compound?
Answer: 85%

Question: What about the “mean TNF concentration” value (1 μM test drug) of the same compound?
Answer: 64.0 pg/mL

Question: What about the “TNF concentration as %” value [3] of the same compound?
Answer: 72%

Question: And the “mean TNF concentration” value (10 μM test drug)?
Answer: 54.3 pg/mL

Question: What about the “TNF concentration as %” value [4] of the same compound?
Answer: 96%

Question: What about the “mean TNF concentration” value (100 μM test drug) of the same compound?
Answer: 72.2 pg/mL
